Patent publication US7977371B2, “Pyrrole derivative having ureido group and aminocarbonyl group as substituents” (Santen Pharmaceutical Co., Ltd., priority 2007, dated 2011)
Where a name gives a salt, the structure may show the parent alone.

Experiments:
[1] = system: TNF-α-induced IL-6 production in normal human skin fibroblast-derived CCD-1059Sk cells; assay: Test for measurement of inhibitory activity against TNF-α-induced IL-6 production; assay type: cell-based; conditions: Homo sapiens, CCD-1059Sk, 16 h, test compound at 10 μM, TNF-α stimulation 16 hours, inhibition ratio of 100% or more is indicated as 100%
Protocol: 1. Test for Measurement of Inhibitory Activity Against IL-6 Production
An inhibitory effect on TNF-α-induced IL-6 production in normal human skin fibroblast-derived CCD-1059Sk cells (ATCC No. CRL-2072) was evaluated. The amount of IL-6 was determined by the homogeneous time-resolved fluorescence method using HTRF™ Human IL-6 kit (Cat. No. 62IL6PEB, manufactured by CIS-Bio international, Inc.). Specific test methods will be described below.
(Preparation of Test Compound Solution)
After a test compound was dissolved in dimethyl sulfoxide, the resulting solution was diluted with D-MEM medium containing 0.1% heat-inactivated fetal bovine serum, 0.1 mM MEM non-essential amino acid solution, 100 U/mL penicillin and 100 μg/mL streptomycin (hereinafter referred to as “medium”), whereby a 40 μM test compound solution was prepared.
(Test Method and Measurement Method)
1) CCD-1059Sk cells prepared at a density of 3×10^5 cells/mL were inoculated in a 384-well plate in an amount of 10 μL per well such that the cell density was 3×10^3 cells/well.
2). After the plate was incubated at 37° C. for several hours in a CO2 incubator, 5 μL of the test compound was added to each well.
3) After the plate was incubated at 37° C. for 1 hour in a CO2 incubator, 5 μL of a 40 ng/mL TNF-α solution was added to each well.
4) After the plate was incubated at 37° C. for 16 hours in a CO2 incubator, 10 μL of a cryptate-labeled anti-IL-6 antibody and an XL665-labeled anti-IL-6 antibody containing potassium fluoride was added to each well.
5) After the plate was incubated at room temperature for several hours, a fluorescence intensity ratio (665 nm/620 nm) was determined for each well using a multimode plate reader Analyse™ HT (manufactured by Molecular Device Corporation) and Criterion Host software version 2.00 (manufactured by Molecular Device Corporation), and then, the amount of IL-6 was calculated.
6) The same procedures as in the above 1) to 5) were performed except that 0.4% dimethyl sulfoxide was added in place of the test compound, and the obtained result was designated as the control.
7) The same procedures as in the above 1) to 5) were performed except that 0.4% dimethyl sulfoxide and the medium were added in place of the test compound and the TNF-α solution, respectively, and the obtained result was designated as the background.
(Calculation Formula of IL-6 Production Inhibition Ratio)
An IL-6 production inhibition ratio (%) was calculated from the following formula. IL-6 Production Inhibition Ratio (%)=100×{1−[(Amount of IL-6 for Test Compound)−(Amount of IL-6 for Background)/(Amount of IL-6 for Control)−(Amount of IL-6 for Background)]} (Evaluation Results)

[2] = system: choroidal neovascularization induced by krypton laser irradiation; assay: Evaluation test for inhibitory effect on choroidal neovascularization (rat model induced by krypton laser irradiation); assay type: in vivo, Brown Norway rat; conditions: po, 168 h, 30 mg/kg/day orally once a day for 7 days (day 0 to day 6), fluorescein fundus angiography on day 7, versus vehicle administration group, average of 5 to 8 eyes of 3 to 4 rats, read-out: Ratio of incidence of neovascularization (% of control)
Excerpt: 2. Evaluation Test for Inhibitory Effect on Choroidal Neovascularization
As one of the methods widely used for evaluating an inhibitory effect on choroidal neovascularization, a rat model of choroidal neovascularization induced by krypton laser irradiation has been reported in Graefe's Arch. Cli. Exp. Ophthalmol., 235, 313-319 (1997). According to the method described in this document, a ratio of incidence of choroidal neovascularization of a present compound administration group to that of a vehicle administration group was calculated using the rat model of choroidal neovascularization, and an inhibitory effect of the present compound on choroidal neovascularization was evaluated using the calculated value as an index. Specific test methods will be described below.
(Preparation of Administration Liquid of Test Compound)
A test compound was suspended in a 1% aqueous methyl cellulose solution, whereby a 6 mg/mL test compound suspension was prepared.
(Preparation of Rat Model of Choroidal Neovascularization Induced by Krypton Laser)
1) To a Brown Norway rat (male, 7 to 8 weeks of age), a mixed solution of a 5% ketamine hydrochloride injection solution and a 2% xylazine hydrochloride injection solution (7:1) was intramuscularly administered at a dose of 1 mL/kg to effect systemic anesthesia.
2) After a 0.5% tropicamide-0.5% phenylephrine hydrochloride eye drop was instilled into the eyes to cause mydriasis, photocoagulation was performed using a krypton laser photocoagulation apparatus (MC-7000, manufactured by NIDEK Co., Ltd.). The krypton laser irradiation was performed at eight spots per eye sparsely by focusing on the retinal deep layer avoiding large retinal vessels in a posterior section of ocular fundus. The photocoagulation conditions were set such that the spot size was 100 μm, the output was 100 mW and the coagulation time was 0.1 sec.
3) After the photocoagulation, the ocular fundus photography was performed (PRO III, manufactured by Kowa Company, Ltd.) to confirm the photocoagulation (krypton laser irradiation) sites.
(Administration Method of Test Compound)
1) The test compound suspension (30 mg/kg/day) was orally administered once a day for 7 consecutive days from the day of krypton laser irradiation (day 0) until day 6.
2) A 1% aqueous methyl cellulose solution was administered in the same manner as in 1) in place of the test compound suspension, and the obtained result was designated as the vehicle administration group.
1). On day 7 after the photocoagulation, 0.1 mL of a 10% aqueous fluorescein solution was injected into the tail vein, and fluorescein fundus angiography was performed (PRO III, manufactured by Kowa Company, Ltd.).
2) In the fluorescein fundus angiography, a spot where fluorescence leakage was not observed was determined to be negative and a spot where fluorescence leakage was observed was determined to be positive. With respect to photocoagulation sites where a little fluorescence leakage was observed, in the case where there were two such photocoagulation sites, it was determined to be positive.
(Calculation Formula of Incidence of Neovascularization)
An incidence (%) of neovascularization of each administration group and a ratio of incidence of neovascularization of the test compound administration group to that of the vehicle administration group were calculated from the following formulae, respectively. Incidence of Neovascularization of Each Administration Group (%)=[(Number of Positive Photocoagulation. Sites)/(Number of Total Photocoagulation Sites)]×100 Ratio of Incidence of Neovascularization of Test Compound Administration Group to that of Vehicle Administration Group (% of Control)=[(Incidence of Neovascularization of Test Compound Administration Group)/(Incidence of Neovascularization of Vehicle Administration Group)]×100 (Evaluation Results)

| SMILES | inhibition at 10 µM [1] [%] | response vs control in vivo at 30 mg/kg [2] [%] |
| --- | --- | --- |
| NC(=O)Nc1[nH]c(-c2ccc(F)cc2)cc1C(N)=O [Compound 1-8, 2-Aminocarbonylamino-5-(4-fluorophenyl) pyrrole-3-carboxamide] | 93 | 31 |
| COc1ccccc1-c1cc(C(N)=O)c(NC(N)=O)[nH]1 [Compound 1-9, 2-Aminocarbonylamino-5-(2-methoxyphenyl) pyrrole-3-carboxamide] | 100 | 40 |
| NC(=O)Nc1[nH]c(-c2cccc(Cl)c2)cc1C(N)=O [Compound 1-25, 2-Aminocarbonylamino-5-(3-chlorophenyl) pyrrole-3-carboxamide] | 99 | 52 |
| CCCOc1ccccc1-c1cc(C(N)=O)c(NC(N)=O)[nH]1 [Compound 4-4, 2-Aminocarbonylamino-5-(2-propyloxyphenyl) pyrrole-3-carboxamide] | 90 | 71 |
| CCCOc1ccc(F)cc1-c1cc(C(N)=O)c(NC(N)=O)[nH]1 [Compound 4-34, 2-Aminocarbonylamino-5-(5-fluoro-2-propyloxyphenyl) pyrrole-3-carboxamide] | 100 | 75 |
| CCCOc1ccc(Cl)cc1-c1cc(C(N)=O)c(NC(N)=O)[nH]1 [Compound 4-37, 2-Aminocarbonylamino-5-(5-chloro-2-propyloxyphenyl)pyrrole-3-carboxamide] | 97 | 69 |
| N#CCOc1ccc(Cl)cc1-c1cc(C(N)=O)c(NC(N)=O)[nH]1 [Compound 4-43, 2-Aminocarbonylamino-5-(5-chloro-2-cyanomethyloxyphenyl)pyrrole-3-carboxamide] | 99 | 57 |
| NC(=O)Nc1[nH]c(-c2cc(F)ccc2OCCO)cc1C(N)=O [Compound 4-54, 2-Aminocarbonylamino-5-[5-fluoro-2-(2-hydroxyethyloxy)phenyl]pyrrole-3-carboxamide] | 96 | 86 |
| NC(=O)Nc1[nH]c(-c2cc(Cl)ccc2OCCN2CCCCC2)cc1C(N)=O [Compound 8-14] | 100 | – |
| CN1CCN(CCOc2ccc(Cl)cc2-c2cc(C(N)=O)c(NC(N)=O)[nH]2)CC1 [Compound 8-15] | 98 | – |
| NC(=O)Nc1[nH]c(-c2cc(Cl)ccc2OCCN2CCC(CCO)CC2)cc1C(N)=O [Compound 8-16] | 100 | – |
| CN(CCO)CCOc1ccc(F)cc1-c1cc(C(N)=O)c(NC(N)=O)[nH]1 [Compound 8-17] | 100 | – |
| CSCCOc1ccc(F)cc1-c1cc(C(N)=O)c(NC(N)=O)[nH]1 [Compound 8-18] | 100 | – |
| CN(CCOc1ccc(F)cc1-c1cc(C(N)=O)c(NC(N)=O)[nH]1)C1CCCCC1 [Compound 8-22] | 98 | – |
| C=Cc1ccc(-c2cc(C(N)=O)c(NC(N)=O)[nH]2)cc1 [Compound 9-1, 2-Aminocarbonylamino-5-(4-vinylphenyl)pyrrole-3-carboxamide] | 100 | – |
| NC(=O)Nc1[nH]c(-c2ccoc2)cc1C(N)=O [Compound 9-2] | 87 | – |
| NC(=O)Nc1[nH]c(-c2cccc(C#CCO)c2)cc1C(N)=O [Compound 10-3] | 100 | – |
| C#Cc1cccc(-c2cc(C(N)=O)c(NC(N)=O)[nH]2)c1 [Compound 11-1, 2-Aminocarbonylamino-5-(3-ethynylphenyl)pyrrole-3-carboxamide] | 100 | – |
| CSCc1cccc(-c2cc(C(N)=O)c(NC(N)=O)[nH]2)c1 [Compound 15-1, 2-Aminocarbonylamino-5-(3-methylthiomethylphenyl)pyrrole-3-carboxamide] | 98 | – |
| NC(=O)Nc1[nH]c(-c2cccc(Cl)c2)c(C=O)c1C(N)=O [Compound 17-1, 2-Aminocarbonylamino-5-(3-chlorophenyl)-4-formylpyrrole-3-carboxamide] | 98 | – |
| NC(=O)Nc1[nH]c(-c2cccc(Cl)c2)c(CO)c1C(N)=O [Compound 18-1, 2-Aminocarbonylamino-5-(3-chlorophenyl)-4-(hydroxymethyl)pyrrole-3-carboxamide] | 90 | – |
| CNCc1c(-c2cccc(Cl)c2)[nH]c(NC(N)=O)c1C(N)=O [Compound 19-1, 2-Aminocarbonylamino-5-(3-chlorophenyl)-4-(methylaminomethyl)pyrrole-3-carboxamide] | 97 | – |
| CNCCOc1ccccc1-c1cc(C(N)=O)c(NC(N)=O)[nH]1 [Compound 20-1, 2-Aminocarbonylamino-5-[2-(2-methylaminoethyloxy)phenyl]pyrrole-3-carboxamide hydrochloride] | 95 | – |
